Key:
Format in all cases: cell-based
Melanoma = assay: Colony forming assay in fresh human tumors; conditions: .001 ug/mL continuously, tumor cell survival of less than 50% of control
Experimental: The clonogenic assays were conducted in accordance with the procedure described hereinbelow: 1) Colony Forming Assays in Soft Agar: Fresh human or murine tumors are disaggregated into single cell suspensions using mechanical, hypoosmotic and/or enzymatic (trypsin) methods. The single cells (about 5 X 10^4-10^5) are plated in 35 mm plastic petri dishes onto a 1 ml "feeder layer" of 0.3% agar dissolved in growth medium containing 5-10% vol/vol of heat-inactivated fetal bovine serum, molten 0.3% agar and the antibiotics penicillin (100 u/mL) and streptomycin (100 ug/mL). Drug exposures can be performed for one hour or continuously (drugs added to final plating medium). Tumor cell colonies > 60 uM in size are counted by automated image analysis after 10-20 days of incubation in a humidified, 5-10% CO2-gassed environment maintained at 37°C. Inhibition of colony formation is calculated based on comparisons to control (untreated) plates wherein the growth of hundreds of colonies/plate is typical. […]
Fresh human tumor specimens disaggregated to single cell suspensions and exposed to .001 ug/mL of drug continuously. Percent survival represents the fraction of tumor colonies (> 60 uM size) obtained after drug treatment compared to untreated cells of the same tumor. […] Each tumor sample is analyzed in three different petri dishes (i.e., n = 3 for each sample).

LOVOp32 = assay: Activity against human colon tumor cells (MTT assay, 3 day drug exposure); conditions: cells plated 24 hr. prior to drug addition, read-out: Concentration for 50% inhibition of colony formation for human colon tumors
Experimental: (§1) For example, the compounds of the present invention were evaluated for cytotoxic activities in cloned human colon carcinomas. The clonogenic assays were conducted in accordance with the procedure described hereinbelow: 1) Colony Forming Assays in Soft Agar: Fresh human or murine tumors are disaggregated into single cell suspensions using mechanical, hypoosmotic and/or enzymatic (trypsin) methods. The single cells (about 5 X 10^4-10^5) are plated in 35 mm plastic petri dishes onto a 1 ml "feeder layer" of 0.3% agar dissolved in growth medium containing 5-10% vol/vol of heat-inactivated fetal bovine serum, molten 0.3% agar and the antibiotics penicillin (100 u/mL) and streptomycin (100 ug/mL). Drug exposures can be performed for one hour or continuously (drugs added to final plating medium). Tumor cell colonies > 60 uM in size are counted by automated image analysis after 10-20 days of incubation in a humidified, 5-10% CO2-gassed environment maintained at 37°C. Inhibition of colony formation is calculated based on comparisons to control (untreated) plates wherein the growth of hundreds of colonies/plate is typical. (Salmon SE, et al., N Engl J Med 298(24):1321-1327, 1978).
(§2) Compounds of the present invention were tested for their in vitro activity in tumor cells sensitive and resistant to standard anti-cancer agents. The tumor cell lines used in this protocol are 8226 human Myeloma^1; 8226/Dox-40^2, L-1210/Murine Leukemia, multidrug resistant L-210/^3, 2780 Human Ovarian Cancer and 2780/AD^4. Each of these resistant cell lines is known as a multidrug resistant or "MDR" cell line. These cell lines produce a 170,00 molecular weight membrane protein termed the P-glycoprotein which acts as an active drug efflux pump. Thus, once a cell produces the P-glycoprotein, it has the capability of pumping out of the cell a large variety of unrelated natural products. […] The protocol for measuring the effectiveness of compounds of the present invention is as follows: 2) In Vitro Tumor Cell Viability Assays Using MTT-Dye: Tumors are processed into a single cell suspension as described above. The cells are plated at a concentration of 3-5 X 10^4/1 mL well into plastic 96-well plates. Growth medium containing 5-10% (vol/vol) heat-inactivated fetal bovine serum and penicillin/streptomycin (as above) is added prior to incubation at 37°C for six days. Afterwards the medium containing the drug is removed, the cells are "washed" by centrifugation in fresh medium or phosphate-buffered saline (pH 7.4). A tetrazolium dye is then added (3,4,5-dimethylthiazol-2-yl)-2,5-diphenyl tetrazolium bromide (MTT). This dye forms a colored formazan product upon activation by mitochondrial reductases in viable cells. Typically, the formazan product is solubilized in acid-propanol or DMSO. The intensity of the color is proportional to viable cell numbers and this is quantitated by spectrophotometric absorbance ([…]) on a micro ELISA plate reader. Test results are calibrated in % control absorbance from untreated tumor cells (Mossman T: J Immunol Meth 65:55-63, 1983). Using the above procedure, Compound 1 was tested for its cytotoxic activity with respect to various tumor cell lines.

205p14 = assay: as above; conditions: cells plated 24 hr. prior to drug addition, read-out: Concentration for 50% inhibition of colony formation for human colon tumors
Experimental: as §1, §2

IC50 (LOVOp32): 300 nM
IC50 (205p14): 400 nM
Compound: CN(C)CCN1C(=O)c2cccc3cc4ccccc4c(c23)C1=O [Compound 1, 2-[2'-(dimethylamino)ethyl]-1,2-dihydro-3H-dibenz(deh)isoquinoline-1,3-dione]
Overall Response (Melanoma): 64%
